Data taken from US10662146B2, “Prodrugs of fencamfamine” (Praxis Bioresearch, LLC, priority 2015, dated 2020).
“Also recorded” adds a separate entry of the source.

System: spontaneous locomotor activity
Assay: Spontaneous locomotor activity (sLMA), oral administration
Type: in vivo, Male Sprague-Dawley (SD) rats
Conditions: p.o. 1, 5 or 10 mg/kg equivalent of PRX-002 (−), 60 min before 60 min test, vs vehicle
Description: Male Sprague-Dawley (SD) were housed in groups of three under controlled conditions. Water and food were available ad libitum. The rats were kept for 1 week under these conditions before behavioral test. On the day of test rats were allowed to acclimate to the testing room for at least 30 min before test compound administration. Rats were randomly assigned into 4 groups.
Vehicle was 0.1% Tween-80 and 0.5% carboxymethylcellulose to which respective amount of PRX-P4-003 was added to obtain a clear solution.
Animals were p.o. administered with Veh or 3 doses of PRX-P4-003 [1, 5 or 10 mg/kg equivalent dose of active compound PRX-002 (−)] at 60 min before spontaneous locomotor activity (sLMA) test.
The rat was placed at the center of test chamber for the 60 min sLMA video recording. 60 min of spontaneous locomotion activity was video recorded and off line analyzed with Animal Behavior Video Tracking Analysis System (Ji Liang Software Technology Co., Ltd., Shanghai, China). Total traveling distance (cm) and duration (sec) of locomotor activity of every 15 min is presented FIGS. 11A and 11B.

## CCCCCCCCCCCCCCCCCC(=O)OCOC(=O)N(CC)C1C2CCC(C2)C1c1ccccc1 (single isomer, unassigned) [PRX-P4-003, N-(Octadecanoyloxymethoxycarbonyl)-(−)-N-ethyl-3-phenylbicyclo[2.2.1]heptan-2-amine]
  Spontaneous locomotor activity (sLMA): total traveling distance and duration: dose dependent increase in sLMA; also recorded: both traveling distance and locomotion duration increased
